Legend:
[1] = test system: AR-overexpressing Jurkat cells; conditions: 100 nM, re-stimulated Days 0, 3, 6, over 9 days
Method: Data are mean±SEM. Statistical significance was determined by Student's t test. **p≤0.01, ****p≤0.0001.
Empty vector and androgen receptor-expressing Jurkat cells were seeded into six well plates (Gibco) at 2×10^5 cells per well and treated with 100 nM testosterone (Sigma) or DHT (Millipore), alongside methanol vehicle control (Thermo Fisher). Every three days, cells were counted using the BioRad TC20 automated cell counter, passaged, and re-stimulated with the same androgen concentrations over a time course of 3, 6, and 9 days.

human Tcf7 promoter = conditions: HEK293FT with or without EGFP-C1-AR, 24 h, 500 ng/mL testosterone or 50 nM DHT
Method: Renilla and Red Firefly luciferase activity, the latter of which was regulated by a 1 kb long WT or mutant Tcf7 promoter sequence lacking putative AREs (FIG. 13A), were simultaneously measured in control or EGFP-C1-AR overexpressing HEK293FT post 24 h stimulation with 500 ng/mL testosterone (T) or 50 nM DHT.
Red Firefly luciferase activity, as regulated by a 1 kb long human WT or mutant Tcf7 promoter sequence lacking putative AREs, was measured in EGFP-C1-AR overexpressing HEK293FT cells post 24 h stimulation with 500 ng/mL testosterone or vehicle control.
WT or mutated human Tcf7 promoter sequence of one kb upstream from its transcriptional start site was cloned into the pMCS-Red Firefly Luciferase vector (Thermo Fisher). Mutants lacked individual (“Mut 1-4”) or all putative AR binding sites. Briefly, 40,000 HEK293FT cells were grown on a 96 well plate at 80% confluence. Cells were transfected with 200 ng of pEGFP-C1-human AR (a gift from Michael Mancini, Addgene plasmid #28235) and indicated Tcf7 luciferase reporter plasmids using Lipofectamine 2000 (Thermo Fisher) on Day 0 in triplicates. Renilla luciferase gene expression was used to ensure transfection efficiency (Thermo Fisher). […] Cells were then harvested and luciferase activity was analyzed by using Dual-Luciferase Reporter Assay System (Promega).

Tcf7 = test: qPCR of naive CD8+ T cells stimulated with testosterone, type I IFN or both; format: cell-based, mouse
Method: See methods for details. […] Blue, Male; Pink, Female.
Mouse spleens and tumors were mechanically disrupted, with the latter additionally subjected to digestion with 1 mg/mL Collagenase D (Roche) for 30 min at 37° C. while shaken at 125 rpm. Excess volume of ice-cold PBS with 2% bovine serum albumin was used to inactivate the enzymatic activity. Red Blood Cell Lysis Buffer (BioLegend) was utilized on tissues before they were passed through 70 μm filters to prepare single cell suspensions. For cytokine production experiments, cells were re-stimulated by 50 ng/mL PMA (Sigma), 1 μg/mL Ionomycin (Sigma) and 1× Brefeldin A (BioLegend) in a 48-well plate for 2 hours at 37° C. For in vitro cultures, purified CD8^+ T cells were left untreated or stimulated with 50 ng/mL testosterone (Sigma) and/or 50 U/mL mouse IFN alpha A (PBL Assay Science). Cells were stained at 4° C. with eFluor506 fixable viability dye for 10 minutes (Invitrogen), followed by extracellular surface markers and FcR block concurrently for 30 minutes. […]
RNA was extracted from FACS/MACS-isolated CD8^+ T cells and reverse-transcribed using RNeasy Micro Kit (Qiagen) and SuperScript™ IV VILO™ Master Mix with ezDNase™ Enzyme (ThermoFisher Scientific), respectively. Quantitative PCR was performed with the following primers: […]

[2] = test system: CD8+ tumor-infiltrating lymphocytes (TILs) from female patients with bladder cancer; test: AR blockade of in vitro expanded CD8+ bladder cancer TILs, flow cytometry; format: cell-based, human; conditions: enzalutamide (50 uM in the presence of 10 nM DHT; varying doses), ex vivo expanded TILs
Description: FIGS. 19A, 19B, 19C, 19D and 19E show androgen receptor blockade of in vitro expanded CD8+ bladder cancer TILs promotes effector differentiation and function. […] Statistical significance in FIGS. 19A-C determined by repeated measures ANOVA. P values were corrected for multiple hypothesis testing using the Dunnett method. Statistical significance in FIG. 19E determined by Student's paired t test. *P≤0.05.
In FIG. 19, we investigated the impact of androgen receptor (AR) blockade on in vitro expanded CD8^+ tumor-infiltrating lymphocytes (TILs) from female patients with bladder cancer, focusing on effector differentiation and function. Panel A (FIG. 19A) illustrates the effect of dihydrotestosterone (DHT) treatment on the CD8+GZMB^high population within ex vivo expanded TILs. […] Panel D (FIG. 19D) assesses IFNγ production in CD8+ TILs after PMA/ionomycin/golgi block stimulation with or without enzalutamide. Lastly, Panel E presents the median fluorescence intensity (MFI) of IFN-gamma within the CD8+GZMB^high population. Statistical significance in Panels A-C was determined by repeated measures ANOVA, with P values corrected for multiple hypothesis testing using the Dunnett method. In Panel E (FIG. 19E), statistical significance was determined by Student's paired t test (*P≤0.05).

[3] = test system: MB49 mouse urothelial carcinoma cells; test: MB49 tumor growth in WT mice after daily oral enzalutamide; format: in vivo; conditions: male WT mice, enzalutamide 25 mg/kg daily oral gavage from Day 5, vs vehicle
Description: FIGS. 5A, 5B, 5C, 5D, 5E, 5F, 5G, 5H, 5I, and 5J show T cell intrinsic AR signaling contributes to male bias in tumor growth and accumulation of CD8^+ progenitor exhausted T cells. MB49 growth and circulating free testosterone levels in (5A) Four Core Genotype or (5B) WT mice three weeks post sham or surgical castration (cast). […] LNCaP lysates were used as the positive AR control. Rep, replicate. […] For tumor growths, mean area (mm^2)±SEM are reported, with statistical significance determined using the repeated measures two-way ANOVA. n=6-11 mice per group.
MB49 (a gift from C. Voelkel-Johnson from the Medical University of South Carolina) and BKL171 mouse urothelial carcinoma cells were cultured in Dulbecco's modified Eagle's medium with 10% heat-inactivated fetal bovine serum and 1% penicillin/streptomycin. 5×10^5 tumor cells were resuspended in 100 μL ice cold PBS for subcutaneous injection into the right flank of a mouse. For antibody-mediated T cell depletion experiments, mice were injected intraperitoneally with 200 μg of anti-mouse CD4 (Clone GK1.5, BioXCell) and/or CD8 neutralizing antibodies (Clone 53-6.7, BioXCell), followed by 100 μg thereafter on the indicated days. […] Tumor surface area (width×length mm^2) was measured using an electronic caliper starting on Day 4 post implantation.

Compound | proliferation [1] | Tcf7 promoter activity (Red Firefly luciferase) (human Tcf7 promoter) | Ar expression (qPCR) (Tcf7; female CD8+ T cells, testosterone) | Tcf7 expression (qPCR) (Tcf7; male CD8+ T cells, acute testosterone exposure, 6 hours) | effector differentiation and function of CD8+ TILs (GZMB high frequency, PD-1 high TOX high frequency, IFNγ) [2] | MB49 tumor growth [3]
C[C@]12CC[C@H]3[C@@H](CCC4=CC(=O)CC[C@@]43C)[C@@H]1CC[C@@H]2O [testosterone] | decreased proliferation | stimulated Tcf7 promoter activity in an AR dependent manner | induction of Ar expression | significantly increased |  | 
CNC(=O)c1ccc(N2C(=S)N(c3ccc(C#N)c(C(F)(F)F)c3)C(=O)C2(C)C)cc1F [enzalutamide] |  |  |  |  | promoting effector differentiation and function | partial protection against tumor growth
C[C@]12CCC(=O)C[C@@H]1CC[C@@H]1[C@@H]2CC[C@]2(C)[C@@H](O)CC[C@@H]12 [DHT, dihydrotestosterone] | decreased proliferation | stimulated Tcf7 promoter activity in an AR dependent manner |  |  |  | 

Reference: patent publication US20240382459A1, “MECHANISMS OF ANDROGEN RECEPTOR-CENTERED TRANSCRIPTIONAL NETWORKS IN REGULATING CD8+ T CELL EXHAUSTION AND THERAPEUTIC APPLICATIONS IN CANCER” (Ohio State Innovation Foundation, priority 2023, published 2024)
